Data reported in article PMC5118696, “Identification of inhibitors that dually target the new permeability pathway and dihydroorotate dehydrogenase in the blood stage of Plasmodium falciparum” (Scientific Reports, 2016).
Like-named read-outs stand apart in the source and are kept apart here.

Tests used:
[1] = test system: Hyp1-NLuc Plasmodium falciparum-infected erythrocytes (new permeability pathway, NPP); assay: microbe, parasite or virus in culture; details: Erythrocyte, 0.33 h, read-out: Mean RLU at 28 min (As % of DMSO control)
[2] = test system: Hyp1-NLuc Plasmodium falciparum-infected erythrocytes (new permeability pathway, NPP); assay: microbe, parasite or virus in culture; details: Erythrocyte, 0.33 h, read-out: % of control remaining

| SMILES | activity at 2 µM [1] | activity at 2 µM [2] |
| --- | --- | --- |
| CCCN(CCC)CCCNC(=O)c1cc2c(-c3ccc(OC)c(OC)c3)nn(C)c2s1 [MMV000561] | 107% | 106% |
| CCCCCCc1cc2cc(-c3nc4ccccc4[nH]3)c(=Nc3ccccc3C)oc2cc1O [MMV666597] | 102% | 111% |
| O=C(Nc1ccsc1C(=O)NC1CCCCC1)c1ccc(F)cc1 [MMV665939] | 104% | 115% |
| O=C(NCCCN1CCC(N2CCCCC2)CC1)C1=Cc2cc(Br)ccc2OC1 [MMV019995] | 106% | 106% |
| CN1C=C(c2ccc3ccccc3n2)C(c2c[nH]c3ccccc23)c2ccccc21 (stereo not drawn) [MMV008160] | 91.7% | 86% |
| CCN(CC)CCNc1ccnc2cc(Cl)ccc12 [MMV006087] | 107% | 105% |
| O=c1nc(C=Cc2ccc(Cl)cc2)oc2ccccc12 [MMV007977] | 110% | 105% |
| COc1ccccc1N=C1C(=O)c2ccccc2C(O)=C1N1CCCCC1 [MMV085203] | 107% | 104% |
| Cc1cc(Nc2ccc(OCc3ccccc3)cc2)nc2cc(O)ccc12 [MMV007181] | 105% | 108% |
| O=C(Nc1ccc(-c2nc3cc4ccccc4cc3[nH]2)cc1)c1cccc(Br)c1 [MMV019241] | 103% | 113% |
| COc1cccc(C=Cc2nc(=O)c3ccccc3o2)c1OC [MMV666693] | 75% | 29.9% |
| COc1ccc(C(=O)C(CCC(CNC(C)(C)C)C(=O)c2ccc(OC)cc2)CNC(C)(C)C)cc1 (stereo not drawn) [MMV007591] | 103% | 102% |
| COc1ccc(CNC2CCN(c3ccc(NC(=O)c4cccc(Cl)c4)cc3)CC2)cc1OC [MMV666067] | 101% | 111% |
| CC1CC2=C(CC1CNCCCN(C)C)C(C)(C)CCC2 (stereo not drawn) [MMV665830] | 105% | 104% |
| CC(NCc1ccccc1)c1cc(Cl)ccc1O (stereo not drawn) [MMV665789] | 107% | 117% |
| COc1ccccc1CNC(=O)CCn1c(=O)[nH]c2ccccc2c1=O [MMV665916] | 98.8% | 98.4% |
| Cc1cc(NC(=O)C2c3ccccc3C(=O)N(CC(C)C)C2c2cccs2)no1 (stereo not drawn) [MMV006429] | 99.6% | 98.1% |
| CCC(c1ccccc1)c1nn2c(-c3cccs3)nnc2s1 (stereo not drawn) [MMV665876] | 85.7% | 40.7% |
| CC(Oc1ccc(NC(=O)c2cccs2)cc1)C(=O)c1ccc(Cl)cc1 (stereo not drawn) [MMV665886] | 86.9% | 84.1% |
| COc1cc(-c2nc(-c3ccc(Sc4ccccc4)cc3)c(-c3ccccc3)[nH]2)cc(OC)c1O [MMV007273] | 97.2% | 105% |
| Cc1ccc(Cl)cc1N1CCN(CCCNC(=O)C2CCN(c3nc4ccccc4[nH]3)CC2)CC1 [MMV019746] | 105% | 112% |
| O=C(Nc1cccc(C2=NCCN2)c1)Nc1cccc(C2=NCCN2)c1 [MMV665810] | 85.8% | 84.4% |
| CC(=O)c1sc(NC(=O)Nc2ccc(C)cc2C)nc1C [MMV665894] | 99.8% | 93% |
| COc1ccc(Br)cc1C1Nc2ccc3ccccc3c2C2=C1C(=O)CC(c1ccccc1)C2 (stereo not drawn) [MMV020885] | 100% | 97.2% |
| Nc1ccc(-c2nc3cc(Cc4ccc5[nH]c(-c6ccc(N)cc6)nc5c4)ccc3[nH]2)cc1 [MMV665943] | 64.3% | 51.7% |
| CCOC(=O)C1=C(c2ccccc2)N=c2sc(=Cc3cc(C)n(-c4ccc(F)cc4)c3C)c(=O)n2C1c1cccc(OC)c1OC (stereo not drawn) [MMV666601] | 105% | 103% |

| SMILES | activity at 2 µM [1] | activity at 2 µM [2] |
| --- | --- | --- |
| CCCCc1c(C)nc2c(OC)cccc2c1O [MMV006820] | 106% | 105% |
| FC(F)(F)c1cccc(Nc2nc(-c3ccccc3)nc3ncccc23)c1 [MMV665798] | 103% | 117% |
| Cc1ccc(Nc2nc(N)c3ccccc3n2)cc1Cl [MMV011522] | 95.7% | 99.9% |
| O=C(CSc1ccc2nnc(-c3cccc(F)c3)n2n1)Nc1ccc2c(c1)OCO2 [MMV665918] | 106% | 121% |
| CCOc1c(Cl)cc(CNC(C)C(O)c2ccccc2)cc1OC (stereo not drawn) [MMV665857] | 100% | 108% |
| Oc1ccc(Cl)cc1CNc1nc2ccccc2[nH]1 [MMV665850] | 105% | 110% |
| O=c1nc(C=Cc2ccc(Br)cc2)oc2ccccc12 [MMV666599] | 102% | 94.3% |
| FC(F)(F)c1cccc(Nc2nc3ccccc3nc2Nc2cccc(C(F)(F)F)c2)c1 [MMV665794] | 103% | 109% |
| COc1cccc(Nc2nc(NCCO)c3ccccc3n2)c1 [MMV011944] | 101% | 101% |
| CC(C)(C)C(=O)Nc1ccc(C(=O)Nc2cccc(-c3nc4ccccc4[nH]3)c2)cc1 [MMV665879] | 103% | 114% |
| CCOc1cc2c(cc1OCC)C(c1cc(Cl)c(O)c(OCC)c1)NCC2 (stereo not drawn) [MMV000481] | 112% | 114% |
| Cc1nc2ccccc2c(O)c1CC=C(Cl)Cl [MMV665994] | 96.6% | 101% |
| CN1CCN(c2c3c(c(C#N)c4nc5ccccc5n24)CCC3)CC1 [MMV008127] | 112% | 111% |
| OC(CNC1CCCCC1)Cn1c2ccc(I)cc2c2cc(I)ccc21 (stereo not drawn) [MMV665882] | 103% | 93.7% |
| CCOc1c(Br)cc(C2C(C(=O)OC)=CN(C)C=C2C(=O)OC)cc1OC [MMV006764] | 80.4% | 85.8% |
| OC(CNC1CCCC1)Cn1c2ccccc2c2ccccc21 (stereo not drawn) [MMV000848] | 112% | 110% |
| Cc1cc(NC(=O)c2cccc(C(F)(F)F)c2)n(-c2nc(-c3ccc4c(c3)OCO4)cs2)n1 [MMV396681] | 106% | 102% |
| O=C(NCc1ccco1)C1CCN(S(=O)(=O)c2ccc(Cl)cc2)CC1 [MMV006188] | 106% | 112% |
| COc1ccc(Nc2nc(NCc3ccccc3)c3ccccc3n2)cc1 [MMV000963] | 103% | 106% |
| COc1cc(SC)ccc1C(=O)N1CCCC(C)C1 (stereo not drawn) [MMV056726] | 122% | 123% |
| N=c1n(CCN2CCCCC2)c2ccccc2n1CC(O)c1cccc(Br)c1 (stereo not drawn) [MMV665902] | 101% | 115% |
| CCOC(=O)c1c(C)n(-c2ccccc2)c2ccc(OC(=O)c3cc(OC)c(OC)c(OC)c3)cc12 [MMV396664] | 94.9% | 97.3% |
| COc1ccc(CNC(=O)c2cc3c(=O)n4ccccc4nc3n(CCc3ccccc3)c2=N)cc1 [MMV665881] | 104% | 98% |
| CCOc1cc(Cl)c(C(C)NC(=O)c2ccccc2)cc1OCC (stereo not drawn) [MMV665800] | 100% | 111% |
| Oc1ccccc1CN1CCN(C(c2ccccc2)c2ccccc2)CC1 [MMV011795] | 115% | 113% |
